Source: the NIST ThermoML archive (doi:10.1021/acs.jced.5b00940)

Experiment: mn = molality of the nth substance listed, in mol/kg
Conditions: 100 kPa, Liquid; for viscosity: Capillary tube (Ostwald / Ubbelohde) method; for mass density: Vibrating tube method

CC[N+](CC)(CC)CC.[Br-] [tetraethylammonium bromide] + O
Conditions	mass density, 288.15 K [kg/m3]	mass density, 298.15 K [kg/m3]	mass density, 308.15 K [kg/m3]	mass density, 318.15 K [kg/m3]	viscosity, 288.15 K [mPa·s]	viscosity, 298.15 K [mPa·s]	viscosity, 308.15 K [mPa·s]	viscosity, 318.15 K [mPa·s]
m1 = 0.05	1001.83	998.859	993.878	991.993	1.16	0.904	0.731	0.612
m1 = 0.5	1017.91	1015.99	1010.17	1007.21	1.341	1.043	0.836	0.7
m1 = 1	1035.82	1032.57	1027.25	1023.5	1.55	1.209	0.959	0.792
m1 = 2	1060.98	1057.94	1051.91	1046.83	1.942	1.513	1.189	0.952
